Experimental data reported in patent publication US8691726B2, “Synergistic combination of a glyphosate compound and ZPT” (Dow Global Technologies LLC, priority 2010, dated 2014).
In brackets after ≈: the same amount, converted by molar mass. Where two headings read alike, the source gives them in different places.

Tests used:
[1] = cited from earlier work
[2] = test system: blue-green algae (Anabaena flos-aquae); details: 7 day; cited from earlier work
[3] = test system: Chlorella sp., Chlorella kessleri, and Nostoc commune; experiment: Algal efficacy on dry paint film (Modified ASTM 5589), pool Cs + Ck + Nc; format: cell-based
Description: (§1) A single biocide or blend of biocides was post added into white acrylic latex paint free of biocides to give a maximum total active ingredient/s concentration tested. This paint was then diluted with a biocide free acrylic latex paint to give targeted concentrations for the testing. Depending on the type of biocide blends tested, the total biocides concentrations varies from 400 to 3300 ppm. After biocides addition or dilution, each sample was hand mixed for at least a minute until uniformity was achieved. Each of the paint samples as well as a control sample (containing no biocide) were used to prepare films on black plastic-vinyl chloride/acetate copolymer panels (Leneta Company, Mahwah, N.J.) using a 0.0762 mm (3 mil) bird bar applicator. The panels were thoroughly dried for at least 2 days avoiding direct exposure to sunlight. Square discs (0.5 inch^2; 1.27 cm^2) were cut out from each panel and were used as the substrate for fungal and algal efficacy tests. This sample size allowed for an agar border when the sample disc was placed into the well of the test plate. Each sample was tested in duplicate.
(§2) The appropriate media (BOLD'S 3N for Chlorophytes, BG-11 for Cyanobacteria, and PDA for fungi) were used to support microbial growth. The test plates were maintained at room temp (25° C.-26° C.), in a cycled light-dark environment, for four weeks for algae. Plates for fungal challenge tests were maintained at 30° C. for four weeks. At the end of the incubation period the samples were scored for percent area covered by visible microbial growth.
(§3) Algal efficacy was tested as follows (Modified ASTM 5589).
(§4) ASTM 5589 is a standard accelerated test method for determining resistance of various coatings (including paints) to algal defacement. To accommodate for high-throughput screening, this method was scaled down from petri plates to 6-well plates. A single coupon was placed with a pair of sterile forceps at the center of the agar plug (on top) with the painted surface facing upwards. Algal inoculums were prepared by mixing equal concentrations (approximately 1×10^6 cfu/ml) and equal volumes (depending on number of samples to be inoculated) of like growing organisms.
(§5) In this synergy study, three pool of mixed algae were prepared as the test inoculum, Gloeocapsa sp. and Oscillatoria sp. a mix of cyanobacteria grown on BG-11 media; Chlorella sp., Chlorella kessleri, and Nostoc commune are unicellular chlorphytes that were mixed and grown on Bold media; Trentepohlia aurea, Tretepohlia odorata, and Calotrix parientina are filamentous algae that were mixed and grown on Bold media.
(§6) Each well that contained a tested coupon was inoculated with 400 μl of organism mixture (approximately 1×10^6 cfu/ml) making sure that the whole surface (paint film as well as the agar surrounding it) was evenly covered. The plates were incubated at room temp (25° C.-26° C.) with cyclic exposure to light (OTT-Lite model # OTL4012P, 40 Watt, 26 KLumen) and dark phases, for a period of four weeks. The total area covered was evaluated at the end of each week according to percent area covered in 5% increments.
(§7) The SI is calculated based on F. C. Kull et.
(§8) SI value of <1 in the formula indicates a synergism of the blended biocides exists.
(§9) NE=no end point at the concentration tested that will meet the percent inhibition criteria set in each SI calculation.

various algae = details: cited from earlier work
[4] = test system: Gloeocapsa sp. and Oscillatoria sp.; experiment: Algal efficacy on dry paint film (Modified ASTM 5589), pool Gs + Os; format: cell-based; details: for % Inhibition, Os-Gl: at the total conc printed for the same blend; for % Inhibition Gs + Os: four weeks
Description: as §1, §2, §3, §4, §5, §6, §7, §8, §9

[5] = test system: Alternaria alternata was mixed with Aureobasidium pullulans; experiment: Fungal efficacy on dry paint film (Modified ASTM 5590), pool Aa + Ap; format: cell-based; details: 672 h, four weeks
Description: (§10) Each sample was tested in duplicate.
(§11) Fungal efficacy was tested as follows (Modified ASTM 5590).

[6] = test system: diatom (Navicula pelliculosa); details: 7 day; cited from earlier work
[7] = test system: Cladosporium herbarum was mixed with Trichoderma viride; experiment: Fungal efficacy on dry paint film (Modified ASTM 5590), pool TV + Ch; format: cell-based; details: four weeks
Description: as §10, §11

[8] = test system: green algae (Selenastrum capricornutum); details: cited from earlier work; for EbC50: biomass
[9] = test system: Trentepohlia aurea, Tretepohlia odorata, and Calotrix parientina; experiment: Algal efficacy on dry paint film (Modified ASTM 5589), pool Cp + To + Ta; format: cell-based; details: for % Inhibition, Cal-Tre: at the total conc printed for the same blend; for % Inhibition Cp + To + Ta: four weeks
Description: as §1, §2, §3, §4, §5, §6, §7, §8, §9

[10] = test system: Aspergillus niger was mixed with Penicillium funiculosum; experiment: Fungal efficacy on dry paint film (Modified ASTM 5590), pool An + Pf; format: cell-based; details: for % Inhibition, An-Pf: at the total conc printed for the same blend; for % Inhibition An + Pf: four weeks
Description: as §1, §2, §11
ASTM 5590 is a standard accelerated test method for determining resistance of various coatings (including paints) to fungal defacement. To accommodate for high-throughput screening, this method was scaled down from petri plates to 6-well plates. To set up the test, an agar plug was placed at the bottom of each well of the sterile 6-well plate. A single coupon was placed with a pair of sterile forceps at the center of the agar plug (on top) with the painted surface facing upwards. Fungal inoculums were prepared by mixing equal concentrations (approximately 1×10^6 cfu/ml) and equal volumes (depending on number of samples to be tested) of like growing organisms. For this synergy study, three pools of mixed fungi were prepared as the test inoculum. Cladosporium herbarum was mixed with Trichoderma viride, Aspergillus niger was mixed with Penicillium funiculosum and Alternaria alternata was mixed with Aureobasidium pullulans. Each well was inoculated with 400 microliter of organism mixture (approximately 1×10^6 cfu/ml) making sure that the whole surface (paint film as well as the agar surrounding it) was evenly covered. The plates were incubated at 30° C. in presence of moisture, for a period of four weeks. The total percent area covered was evaluated and recorded at the end of each week and recorded in increments of 5%.
as §7, §8, §9

[11] = test system: marine algae (Skeletonema costatum); details: cited from earlier work
[12] = Nostoc commune, 672 h, read-out: % Inhibition Cs + Ck + Nc
[13] = 672 h, read-out: % Inhibition Gs + Os
[14] = Trentepohlia aurea, 672 h, read-out: % Inhibition Cp + To + Ta
[15] = 672 h, read-out: % Inhibition An + Pf

O=C(O)CNCP(=O)(O)O [glyphosate, N-(phosphonomethyl)glycine]
solubility in water [1]: relatively high | EC50 [2]: 15 mg/L (≈ 88.7 µM) | inhibition at 750 ppm [3, 12]: 37.5% | inhibition at 1500 ppm [3, 12]: 60% | inhibition at 2500 ppm [3, 12]: 80% | activity against various algae (various algae): relatively low | inhibition at 750 ppm [4, 13]: 15% | inhibition at 1500 ppm [4, 13]: 72.5% | inhibition at 2500 ppm [4, 13]: 90% | inhibition at 750 ppm ([5]; 750 ppm in paint): 7.5% | inhibition at 1500 ppm ([5]; 1500 ppm in paint): 20% | inhibition at 2500 ppm ([5]; 2500 ppm in paint): 67.5% | EC50 [6]: 42 mg/L (≈ 248 µM) | inhibition at 750 ppm ([7]; 672 h, 750 ppm in paint): 2.5% | inhibition at 1500 ppm ([7]; 672 h, 1500 ppm in paint): 50% | inhibition at 2500 ppm ([7]; 672 h, 2500 ppm in paint): 72.5% | EbC50 ([8]; 72 hr): 485 mg/L | ErC50 ([8]; 72 hr, growth rate): 460 mg/L | EbC50 ([8]; 7 day): 13.8 mg/L | inhibition at 750 ppm [9, 14]: 0% | inhibition at 1500 ppm [9, 14]: 10% | inhibition at 2500 ppm [9, 14]: 7.5% | inhibition at 750 ppm [10, 15]: 0% | inhibition at 1500 ppm [10, 15]: 5% | inhibition at 2500 ppm [10, 15]: 10% | EC50 ([11]; 96 hr): 1.3 mg/L (≈ 7.69 µM) | EC50 ([11]; 7 day): 0.64 mg/L (≈ 3.79 µM)

zinc pyrithione [ZPT]
% Inhibition, Ch-No ([3]; at the total conc printed for the same blend, Ch-No): 80% | Total conc (minimum inhibitory concentration chosen for SI), Ch-No ([3]; total active in paint, Ch-No): 412.5 pppm | % Inhibition, Os-Gl ([4]; Os-Gl): 100% | Total conc (minimum inhibitory concentration chosen for SI), Os-Gl ([4]; total active in paint, Os-Gl): 3300 pppm | % Inhibition, Cal-Tre ([9]; Cal-Tre): 40% | Total conc (minimum inhibitory concentration chosen for SI), Cal-Tre ([9]; total active in paint, Cal-Tre): 3300 pppm | % Inhibition, An-Pf ([10]; An-Pf): 0% | Total conc (minimum inhibitory concentration chosen for SI), An-Pf ([10]; total active in paint, An-Pf): 3300 pppm

zinc glyphosate
% Inhibition Gs + Os ([4]; 750 ppm in paint): 15% | % Inhibition Gs + Os ([4]; 1500 ppm in paint): 72.5% | % Inhibition Gs + Os ([4]; 2500 ppm in paint): 90% | % Inhibition, Os-Gl ([4]; Os-Gl): 100% | % Inhibition TV + Ch ([7]; 750 ppm in paint): 50% | % Inhibition TV + Ch ([7]; 1500 ppm in paint): 75% | % Inhibition TV + Ch ([7]; 2500 ppm in paint): 90% | % Inhibition Cp + To + Ta ([9]; 750 ppm in paint): 0% | % Inhibition Cp + To + Ta ([9]; 1500 ppm in paint): 0% | % Inhibition Cp + To + Ta ([9]; 2500 ppm in paint): 0% | % Inhibition, Cal-Tre ([9]; Cal-Tre): 100% | % Inhibition An + Pf ([10]; 750 ppm in paint): 20% | % Inhibition An + Pf ([10]; 1500 ppm in paint): 27.5% | % Inhibition An + Pf ([10]; 2500 ppm in paint): 30% | % Inhibition, An-Pf ([10]; An-Pf): 100%
